Reference: ChEMBL document CHEMBL1144525, “Prediction of binding for a kind of non-peptic HCV NS3 serine protease inhibitors from plants by molecular docking and MM-PBSA method” (Bioorg Med Chem, 2007)

Assay: Inhibition of HCV NS3 serine protease
Parameters: species or system Hepacivirus hominis

Row | IC50 [nM] | Structure (SMILES)
1 | 950000 | O=C(OC[C@H]1O[C@@H](O)[C@H](O)[C@@H](OC(=O)c2cc(O)c(O)c(O)c2)[C@@H]1O)c1cc(O)c(O)c(O)c1
2 | 1000 | O=C(O[C@@H]1O[C@H](CO)[C@@H](OC(=O)c2cc(O)c(O)c(O)c2)[C@H](OC(=O)c2cc(O)c(O)c(O)c2)[C@H]1O)c1cc(O)c(O)c(O)c1
3 | 10100 | O=C(OC[C@H]1O[C@@H](OC(=O)c2cc(O)c(O)c(O)c2)[C@H](O)[C@@H](OC(=O)c2cc(O)c(O)c(O)c2)[C@@H]1O)c1cc(O)c(O)c(O)c1
4 | 680 | O=C(Oc1cc(C(=O)O[C@@H]2O[C@H](CO)[C@@H](OC(=O)c3cc(O)c(O)c(O)c3)[C@H](OC(=O)c3cc(O)c(O)c(O)c3)[C@H]2OC(=O)c2cc(O)c(O)c(O)c2)cc(O)c1O)c1cc(O)c(O)c(O)c1
5 | 660 | O=C(Oc1c(O)cc(C(=O)O[C@H]2[C@H](OC(=O)c3cc(O)c(O)c(O)c3)O[C@H](CO)[C@@H](OC(=O)c3cc(O)c(O)c(O)c3)[C@@H]2OC(=O)c2cc(O)c(O)c(O)c2)cc1O)c1cc(O)c(O)c(O)c1
